This passage reports IC50 results from patent US7943770B2, “Fused quinoline derivative and use thereof” (Takeda Pharmaceutical Company Limited, priority 2004, dated 2011).

pIC50: −log10 of the molar value.

Usually pIC50 stands for the negative decadic logarithm of the IC50, by convention in mol/L. Read a low pIC50 as a high IC50.

The target of this experiment is T1, hNK2 receptor (Homo sapiens, UniProt P21452).
T1 construct: host or cells: CHO cells
T1 sequence (P21452 1-398): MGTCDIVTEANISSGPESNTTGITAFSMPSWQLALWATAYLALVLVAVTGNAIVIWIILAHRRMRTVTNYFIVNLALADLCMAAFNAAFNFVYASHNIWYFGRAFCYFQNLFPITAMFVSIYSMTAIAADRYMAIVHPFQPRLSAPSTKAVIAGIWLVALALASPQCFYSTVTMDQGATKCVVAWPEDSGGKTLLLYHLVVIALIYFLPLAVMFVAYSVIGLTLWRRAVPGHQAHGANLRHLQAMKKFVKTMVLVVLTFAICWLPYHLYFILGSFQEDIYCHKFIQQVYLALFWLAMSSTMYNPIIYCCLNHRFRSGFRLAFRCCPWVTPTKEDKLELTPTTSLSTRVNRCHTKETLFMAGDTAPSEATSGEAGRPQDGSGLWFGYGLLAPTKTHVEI
The experiment in a line: Radio-ligand ([125I]-NKA) receptor binding inhibitory activity using membrane fraction of hNK2 receptor-expressing CHO cell. As to conditions: membrane fraction of hNK2 receptor-expressing CHO cells, 25° C., 30 min. The gist of the method: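 Inhibition of [125I]-NKA binding ([…] solution added) measured after 30 min at 25 °C using hNK2-CHO membrane fraction (20 μg/mL suspension) in pH 7.4 Tris buffer containing MnCl2, BSA and protease inhibitors. Filter-bound counts read; activity calculated as fraction of specific binding, non-specific defined with unlabeled NKA.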
For the compound `CC(C)c1ccc(NC(=O)N[C@@H]2CCCC[C@@H]2C(=O)N2CC[C@@H]3[C@H](c4ccccc4)Nc4ccccc4[C@@H]32)cc1` [Example 150, N-(4-Isopropylphenyl)-N′-((1R,2S)-2-{[(3aR,4R,9bR)-4-phenyl-2,3,3a,4,5,9b-hexahydro-1H-pyrrolo[3,2-c]quinolin-1-yl]carbonyl}cyclohexyl)urea], the pIC50 is > 8.00.
The value for `CCNC(=O)N[C@@H]1CCCC[C@@H]1C(=O)N1CC[C@@H]2[C@H](c3ccccc3)Nc3ccccc3[C@@H]21` [Example 151, N-Ethyl-N′-((1R,2S)-2-{[(3aR,4R,9bR)-4-phenyl-2,3,3a,4,5,9b-hexahydro-1H-pyrrolo[3,2-c]quinolin-1-yl]carbonyl}cyclohexyl)urea] was > 8.00.
With `CC(C)NC(=O)N[C@@H]1CCCC[C@@H]1C(=O)N1CC[C@@H]2[C@H](c3ccccc3)Nc3ccccc3[C@@H]21` [Example 152, N-Isopropyl-N′-((1R,2S)-2-{[(3aR,4R,9bR)-4-phenyl-2,3,3a,4,5,9b-hexahydro-1H-pyrrolo[3,2-c]quinolin-1-yl]carbonyl}cyclohexyl)urea] the figure was > 8.00.
With `CCCCNC(=O)N[C@@H]1CCCC[C@@H]1C(=O)N1CC[C@@H]2[C@H](c3ccccc3)Nc3ccccc3[C@@H]21` [Example 153, N-Butyl-N′-((1R,2S)-2-{[(3aR,4R,9bR)-4-phenyl-2,3,3a,4,5,9b-hexahydro-1H-pyrrolo[3,2-c]quinolin-1-yl]carbonyl}cyclohexyl)urea] the figure was > 9.00; with `CCCCCCNC(=O)N[C@@H]1CCCC[C@@H]1C(=O)N1CC[C@@H]2[C@H](c3ccccc3)Nc3ccccc3[C@@H]21` [Example 154, N-Hexyl-N′-((1R,2S)-2-{[(3aR,4R,9bR)-4-phenyl-2,3,3a,4,5,9b-hexahydro-1H-pyrrolo[3,2-c]quinolin-1-yl]carbonyl}cyclohexyl)urea], > 9.00.
Regarding `CCOC(=O)CCNC(=O)N[C@@H]1CCCC[C@@H]1C(=O)N1CC[C@@H]2[C@H](c3ccccc3)Nc3ccccc3[C@@H]21` [Example 155, Ethyl N-{[((1R,2S)-2-{[(3aR,4R,9bR)-4-phenyl-2,3,3a,4,5,9b-hexahydro-1H-pyrrolo[3,2-c]quinolin-1-yl]carbonyl}cyclohexyl)amino]carbonyl}-beta-alaninate], the negative logarithm of the IC50 (pIC50) is > 8.00.
The value for `O=C(NCCCO)N[C@@H]1CCCC[C@@H]1C(=O)N1CC[C@@H]2[C@H](c3ccccc3)Nc3ccccc3[C@@H]21` [Example 156, N-(3-Hydroxypropyl)-N′-((1R,2S)-2-{[(3aR,4R,9bR)-4-phenyl-2,3,3a,4,5,9b-hexahydro-1H-pyrrolo[3,2-c]quinolin-1-yl]carbonyl}cyclohexyl)urea] was > 8.00.
For the compound `CCOC(=O)c1ccc(NC(=O)N[C@@H]2CCCC[C@@H]2C(=O)N2CC[C@@H]3[C@H](c4ccccc4)Nc4ccccc4[C@@H]32)cc1` [Example 159, Ethyl 4-({[((1R,25)-2-{[(3aR,4R,9bR)-4-phenyl-2,3,3a,4,5,9b-hexahydro-1H-pyrrolo[3,2-c]quinolin-1-yl]carbonyl}cyclohexyl)amino]carbonyl}amino)benzoate], the pIC50 is > 8.00.
With `NC(=O)c1ccc(NC(=O)N[C@@H]2CCCC[C@@H]2C(=O)N2CC[C@@H]3[C@H](c4ccccc4)Nc4ccccc4[C@@H]32)cc1` [Example 160, 4-({[((1R,25)-2-{[(3aR,4R,9bR)-4-Phenyl-2,3,3a,4,5,9b-hexahydro-1H-pyrrolo[3,2-c]quinolin-1-yl]carbonyl}cyclohexyl)amino]carbonyl}amino)benzamide] the figure was > 9.00; with `COCCCNC(=O)N[C@@H]1CCCC[C@@H]1C(=O)N1CC[C@@H]2[C@H](c3ccccc3)Nc3ccccc3[C@@H]21` [Example 161, N-(3-Methoxypropyl)-N′-((1R,2S)-2-{[(3aR,4R,9bR)-4-phenyl-2,3,3a,4,5,9b-hexahydro-1H-pyrrolo[3,2-c]quinolin-1-yl]carbonyl}cyclohexyl)urea], > 8.00; with `CCOCCNC(=O)N[C@@H]1CCCC[C@@H]1C(=O)N1CC[C@@H]2[C@H](c3ccccc3)Nc3ccccc3[C@@H]21` [Example 162, N-(2-Ethoxyethyl)-N′-((1R,2S)-2-{[(3aR,4R,9bR)-4-phenyl-2,3,3a,4,5,9b-hexahydro-1H-pyrrolo[3,2-c]quinolin-1-yl]carbonyl}cyclohexyl)urea], > 8.00.
The value for `O=C(NCCc1ccccn1)N[C@@H]1CCCC[C@@H]1C(=O)N1CC[C@@H]2[C@H](c3ccccc3)Nc3ccccc3[C@@H]21` [Example 164, N-((1R,2S)-2-{[(3aR,4R,9bR)-4-Phenyl-2,3,3a,4,5,9b-hexahydro-1H-pyrrolo[3,2-c]quinolin-1-yl]carbonyl}cyclohexyl)-N′-(2-pyridin-2-ylethyl)urea] was > 9.00; that for `CC(C)CCNC(=O)N[C@@H]1CCCC[C@@H]1C(=O)N1CC[C@@H]2[C@H](c3ccccc3)Nc3ccccc3[C@@H]21` [Example 166, N-(3-Methylbutyl)-N′-((1R,2S)-2-{[(3aR,4R,9bR)-4-phenyl-2,3,3a,4,5,9b-hexahydro-1H-pyrrolo[3,2-c]quinolin-1-yl]carbonyl}cyclohexyl)urea] was > 9.00.
As to `O=C(NCCCN1CCCC1=O)N[C@@H]1CCCC[C@@H]1C(=O)N1CC[C@@H]2[C@H](c3ccccc3)Nc3ccccc3[C@@H]21` [Example 168, N-[3-(2-oxopyrrolidin-1-yl)propyl]-N′-((1R,2S)-2-{[(3aR,4R,9bR)-4-phenyl-2,3,3a,4,5,9b-hexahydro-1H-pyrrolo[3,2-c]quinolin-1-yl]carbonyl}cyclohexyl)urea], the pIC50 is > 8.00.
With `O=C(Nc1ccccn1)N[C@@H]1CCCC[C@@H]1C(=O)N1CC[C@@H]2[C@H](c3ccccc3)Nc3ccccc3[C@@H]21` [Example 170, N-((1R,2S)-2-{[(3aR,4R,9bR)-4-Phenyl-2,3,3a,4,5,9b-hexahydro-1H-pyrrolo[3,2-c]quinolin-1-yl]carbonyl}cyclohexyl)-N′-pyridin-2-ylurea] the figure was > 8.00.
With `O=C(Nc1cccnc1)N[C@@H]1CCCC[C@@H]1C(=O)N1CC[C@@H]2[C@H](c3ccccc3)Nc3ccccc3[C@@H]21` [Example 171, N-((1R,2S)-2-{[(3aR,4R,9bR)-4-Phenyl-2,3,3a,4,5,9b-hexahydro-1H-pyrrolo[3,2-c]quinolin-1-yl]carbonyl}cyclohexyl)-N′-pyridin-3-ylurea] the figure was > 8.00; with `O=C(N[C@@H]1CCCC[C@@H]1C(=O)N1CC[C@@H]2[C@H](c3ccccc3)Nc3ccccc3[C@@H]21)N1CCC(c2ccccc2)CC1` [Example 172, 4-Phenyl-N-((1R,2S)-2-{[(3aR,4R,9bR)-4-phenyl-2,3,3a,4,5,9b-hexahydro-1H-pyrrolo[3,2-c]quinolin-1-yl]carbonyl}cyclohexyl)piperidine-1-carboxamide], > 8.00; with `O=C(NCC(F)(F)F)N[C@@H]1CCCC[C@@H]1C(=O)N1CC[C@@H]2[C@H](c3ccccc3)Nc3ccccc3[C@@H]21` [Example 173, N-((1R,2S)-2-{[(3aR,4R,9bR)-4-Phenyl-2,3,3a,4,5,9b-hexahydro-1H-pyrrolo[3,2-c]quinolin-1-yl]carbonyl}cyclohexyl)-N′-(2,2,2-trifluoroethyl)urea], > 8.00.
Turning to `CC(=O)N1CCC(NC(=O)N[C@@H]2CCCC[C@@H]2C(=O)N2CC[C@@H]3[C@H](c4ccccc4)Nc4ccccc4[C@@H]32)CC1` [Example 175, N-(1-Acetylpiperidin-4-yl)-N′-((1R,2S)-2-{[(3aR,4R,9bR)-4-phenyl-2,3,3a,4,5,9b-hexahydro-1H-pyrrolo[3,2-c]quinolin-1-yl]carbonyl}cyclohexyl)urea], the pIC50 is > 8.00.
With `O=C(N[C@@H]1C2CCC(CC2)[C@@H]1C(=O)N1CC[C@@H]2[C@H](c3ccccc3)Nc3ccccc3[C@@H]21)c1ccccc1` [Example 178, N-((2R,3S)-3-{[(3aR,4R,9bR)-4-Phenyl-2,3,3a,4,5,9b-hexahydro-1H-pyrrolo[3,2-c]quinolin-1-yl]carbonyl}bicyclo[2.2.2]oct-2-yl)benzamide] the figure was > 8.00; with `COc1ccc(C(=O)N[C@@H]2CCCC[C@@H]2C(=O)N2CC[C@@H]3[C@H](C4CC4)Nc4ccccc4[C@@H]32)cc1` [Example 180, N-((1R,2S)-2-{[(3aR,4S,9bR)-4-Cyclopropyl-2,3,3a,4,5,9b-hexahydro-1H-pyrrolo[3,2-c]quinolin-1-yl]carbonyl}cyclohexyl)-4-methoxybenzamide], > 9.00.
As to `O=C(CCc1ccccc1)N[C@@H]1CCCC[C@@H]1C(=O)N1CC[C@@H]2[C@H](C3CC3)Nc3ccccc3[C@@H]21` [Example 181, N-((1R,2S)-2-{[(3aR,4S,9bR)-4-Cyclopropyl-2,3,3a,4,5,9b-hexahydro-1H-pyrrolo[3,2-c]quinolin-1-yl]carbonyl}cyclohexyl)-3-phenylpropanamide], the pIC50 was > 9.00.
As to `O=C(N[C@@H]1CCCC[C@@H]1C(=O)N1CC[C@@H]2[C@H](C3CC3)Nc3ccccc3[C@@H]21)c1ccc(F)cc1` [Example 182, N-((1R,2S)-2-{[(3aR,4S,9bR)-4-Cyclopropyl-2,3,3a,4,5,9b-hexahydro-1H-pyrrolo[3,2-c]quinolin-1-yl]carbonyl}cyclohexyl)-4-fluorobenzamide], the pIC50 is > 9.00.
`O=C(Nc1ccccc1)N[C@@H]1CCCC[C@@H]1C(=O)N1CC[C@@H]2[C@H](C3CC3)Nc3ccccc3[C@@H]21` [Example 183, N-((1R,2S)-2-{[(3aR,4S,9bR)-4-Cyclopropyl-2,3,3a,4,5,9b-hexahydro-1H-pyrrolo[3,2-c]quinolin-1-yl]carbonyl}cyclohexyl)-N′-phenylurea]: the pIC50 was > 9.00.
